Several values for one entry are separate records, joined by “and”; a condition that tells them apart may be missing. Identical values can stand only once.
Tests used:
Assay type in all cases: in vivo
[1] = test system: transgenic tobacco overexpressing Arabidopsis SDPS F240L gene and wild-type tobacco; experiment: Herbicide damage of transgenic tobacco sprayed with 75 g/ha Aclonifen or 25 g/ha herbicide Z; conditions: 7 days post treatment; for average herbicide damage score: 75 g/ha
Description: A further set of transgenic tobacco overexpressing the Arabidopsis SDPS F240L gene (SEQ ID NO.3) were created as described above. These plants were sprayed with 75 g/ha Aclonifen or 25 g/ha herbicide Z. The plants were assessed for herbicide damage at 7 days post treatment and compared to wild-type tobacco plants.
Numerous transgenic tobacco events expressing the Arabidopsis SDPS2 F240L gene (SEQ ID NO.3) show no damage from the herbicide treatment in contrast to the damage seen on the control plants. The average herbicide damage scores for the transgenic tobacco population versus the control wild-type plants are shown in table 6.

[2] = test system: Nicotiana tabacum Samsun wild type and transgenic lines (plantlets); experiment: Tolerance of transgenic tobacco T1 lines in liquid culture, bleaching damage score; conditions: after 7 days
Description: Nicotiana tabacum Samsun wild type and transgenic lines were sterilized by placing in 30 ml Universals containing approximately 15 ml freshly made 2% Virkon and rotated on a roller for 15 mins. The Virkon was pipetted off using an extended fine tip mini pastette and the seed washed 4 times with 1% PPM (Plant Preservative Mixture, P820, 250 ml. Apollo Scientific Ltd.)
Seed was germinated on 90 mm Petri dishes containing 1/3 MS+0.8% agarose (SPI, Duchefa #DU 0463). pH5.7 (for WT) and 1/3 MS+0.8% agarose+100 ug/ml kanamycin (for the transgenic). Approximately 100 seed of each was spread on to each Petri dish. NB the transgenic seed is not homozygous therefore was plated on Kan to select. (MS=Murashige & Skoog MS Medium, #M0221, Melford Labs).
Plates were placed in a clear plastic “incubating box” (lids under plate) and incubated in a controlled environment room with the following conditions: • Temperature: Day 25° C./Night 25° C. • Light settings: Photo period 16 hours, Light level ˜50 μmol/m^2/s Dose Response Test:
7 day old tobacco plantlets (3 plantlets per well) were transferred aseptically to 24 well plates (cell-culture cluster flat bottom with lid) (Corning Costar #3524) containing 2 ml % MS+30 mM sucrose (Fisher #10638403), pH5.7 per well. Herbicide 2 was two-fold serially diluted in DMSO starting at 10 ppm and added to the media. DMSO only was added to the zero compound control wells. NB.
Plates were placed in clear plastic “Incubating boxes” (lid under plate) and incubated for 2 weeks in a controlled environment room with the following conditions: • Temperature: Day 24° C./Night 18° C. • Light settings: Photo period 16 hours, Light level 600 μmol/m^2/s. Assessment:
Plantlets were assessed visually for bleaching symptomology after 7 days and a damage score given for each well.

[3] = test system: transgenic tobacco expressing SDPS genes and wild-type Samsun tobacco; experiment: Herbicide tolerance of transgenic tobacco sprayed with 1000 g/ha Herbicide Compound 1, visual damage score; conditions: for Average Damage (%): 1000 g/ha spray, average across population
Source text: Populations of transgenic tobacco comprising 20-30 transgenic events per plant transformation constructs were generated as described in example 4. These lines were clonally propagated and 1 clone per event was sprayed with 1000 g/ha of Herbicide Compound 1. Herbicidal damage was visually assessed across the population and a herbicide damage score given at 7 and 14 days. […] indicates no visible damage or stunting whereas a score of 100 indicates a complete death of the plant.
The results in FIG. 3 show the damage scores for 4 populations of plants expressing either Arabidopsis SDPS2 gene (SEQ ID NO.2), the Arabidopsis SDPS2 F240L mutated gene (SEQ ID NO.3). the Chlorella fusca SDPS gene (SEQ ID NO. 10) or the Chlorella fusca SDPS F227L mutated gene (SEQ ID NO.11). A control population of wild-type Samsun tobacco was also assessed for herbicide damage. […] The Arabidopsis gene (SEQ ID NO.2) performs better than the Chlorella wild-type gene in terms of herbicide tolerance and this tolerance is again improved by the addition of the F240L mutation (SEQ ID NO.3).

## Nc1c([N+](=O)[O-])ccc(Oc2ccccc2)c1Cl [Aclonifen]
[1]; Wild type tobacco
  average herbicide damage score: 40
[1]; pBin AraSDPS2 F240L transgenic tobacco
  average herbicide damage score: 16.17
[1]; wild type tobacco, individual control plants, Aclonifen 75 g/ha spray
  herbicide damage score: 35 (4×) and 30 (2×) and 60 (2×)

## CCOC(=O)C(C)N(c1c(C)cccc1C)S(=O)(=O)CC (stereo not shown) [Herbicide Compound Ex. 2]
[2]; 0.75 ppm, WT (Samsun)
  bleaching damage score (two replicate plates a/b): 0/0
[2]; 0.75 ppm, tobacco line ARA SDPS1
  bleaching damage score (two replicate plates a/b): 0/0
[2]; 0.75 ppm, tobacco line ARA SDPS F240V 1
  bleaching damage score (two replicate plates a/b): 0/0
[2]; 1.25 ppm, WT (Samsun)
  bleaching damage score (two replicate plates a/b): 0/0
[2]; 1.25 ppm, tobacco line ARA SDPS1
  bleaching damage score (two replicate plates a/b): 0/0
[2]; 1.25 ppm, tobacco line ARA SDPS F240V 1
  bleaching damage score (two replicate plates a/b): 0/0
[2]; 2.5 ppm, WT (Samsun), listed as Herbicide 2
  bleaching damage score (two replicate plates a/b): 25/25 and 50/50
[2]; 2.5 ppm, tobacco line ARA SDPS1, listed as Herbicide 2
  bleaching damage score (two replicate plates a/b): 50/50 and 50/25 and 25/25
[2]; 2.5 ppm, tobacco line ARA SDPS F240V 1
  bleaching damage score (two replicate plates a/b): 25/25
[2]; 5 ppm, WT (Samsun), listed as Herbicide 2
  bleaching damage score (two replicate plates a/b): 90/100 and 95/90
[2]; 5 ppm, tobacco line ARA SDPS1, listed as Herbicide 2
  bleaching damage score (two replicate plates a/b): 100/100 and 90/80 and 80/95
[2]; 5 ppm, tobacco line ARA SDPS F240V 1, listed as Herbicide 2
  bleaching damage score (two replicate plates a/b): 50/50 (2×) and 50/25
[2]; 10 ppm, WT (Samsun), listed as Herbicide 2
  bleaching damage score (two replicate plates a/b): 100/100 and 95/100
[2]; 10 ppm, tobacco line ARA SDPS1
  bleaching damage score (two replicate plates a/b): 100/100
[2]; 10 ppm, tobacco line ARA SDPS F240V 1, listed as Herbicide 2
  bleaching damage score (two replicate plates a/b): 90/100 (2×) and 100/100

## CCOC(=O)C(CC)N(c1c(C)cccc1C)S(=O)(=O)CCl (stereo not shown) [Herbicide Compound Ex. 1]
[3]; WT Control tobacco
  Average Damage (%): 23.125%
[3]; tobacco with construct pBin TMV AraSDPS2
  Average Damage (%): 13.25%
[3]; tobacco with construct pBin TMV AraSDPS2_F240L
  Average Damage (%): 5%
[3]; tobacco with construct pBin TMV CfSDPS
  Average Damage (%): 25%
[3]; tobacco with construct pBin TMV CfSDPS_F227L
  Average Damage (%): 10.05%
[3]; tobacco expressing Chlorella fusca SDPS F227L (SEQ ID NO.11)
  tolerance to herbicide (in words): does display increased tolerance
[3]; tobacco overexpressing Chlorella fusca SDPS (SEQ ID NO. 10)
  tolerance to herbicide (in words): does not increase tolerance
